Literature values as cited in patent publication US9012510B2, “Oleoylethanolamide based functional mesophases” (Nestec S.A., priority 2008, dated 2015).

Settings: Thabuis et al., Lipid Technology 2007, 19, 225

CCCCCCCC/C=C\CCCCCCCC(=O)NCCO [OEA, oleoylethanolamide]
effect of administration on food intake and gain in body mass: potent and persistent decrease in food intake and gain in body mass
